# Reference: publication PMC8445441, “Elucidating the mechanism by which synthetic helper peptides sensitize Pseudomonas aeruginosa to multiple antibiotics” (PLoS Pathogens, 2021)
# Like-named read-outs stand apart in the source and are kept apart here.
# Experiments:
# [1] = system: P. aeruginosa AUMC-Pa-5; assay: microbe, parasite or virus in culture; conditions: for FICI: antibiotic + D-11 (MICb/MICbc 64/4); for MICac: MIC of the antibiotic in the combination: with D-11 at MICbc 4
# Method in brief: (§1)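 MICs were determined by CLSI broth microdilution in MHB, in triplicate: two-fold drug dilutions were mixed 1:1 with bacterial suspension of ~1 × 10^6 CFU/mL and incubated 18 h at 37 °C. The MIC was the lowest concentration with no visible growth.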
# [2] = system: P. aeruginosa PAO1; assay: microbe, parasite or virus in culture
# Method in brief: as §1
# [3] = system: P. aeruginosa AUMC-Pa-3; assay: microbe, parasite or virus in culture; conditions: for FICI: antibiotic + D-11 (MICb/MICbc 128/4); for MICac: MIC of the antibiotic in the combination: with D-11 at MICbc 4
# Method in brief: as §1
# [4] = system: P. aeruginosa AUMC-Pa-4; assay: microbe, parasite or virus in culture; conditions: for FICI: antibiotic + D-11 (MICb/MICbc 128/4); for MICac: MIC of the antibiotic in the combination: with D-11 at MICbc 4
# Method in brief: as §1
# [5] = system: P. aeruginosa AUMC-Pa-6; assay: microbe, parasite or virus in culture; conditions: strain AUMC-Pa-6; for FICI: antibiotic + D-11 (MICb/MICbc 64/4); for MICa: MIC of the antibiotic: antibiotic alone; for MICa: MIC of the antibiotic / MICac: MIC of the antibiotic in the combination: unit not given; for MICac: MIC of the antibiotic in the combination: with D-11 at MICbc 4
# Method in brief: as §1
# [6] = system: P. aeruginosa AUMC-Pa-1; conditions: strain AUMC-Pa-1; antibiotic + D-11 (MICb/MICbc 128/4)
# Method in brief: as §1
# [7] = system: P. aeruginosa AUMC-Pa-2; conditions: strain AUMC-Pa-2; antibiotic + D-11 (MICb/MICbc 64/4)
# Method in brief: as §1
# [8] = system: clinical P. aeruginosa isolates; assay: microbe, parasite or virus in culture; conditions: Pseudomonas aeruginosa, 18 h
# Method in brief: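 Broth microdilution per CLSI in MHB, two-fold drug dilutions mixed with an equal volume of bacteria at about 1 × 10^6 CFU/mL. After 18 h at 37 °C, MIC taken as the lowest concentration with no visible growth; run in triplicate.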
# [9] = system: P. aeruginosa HM-214; conditions: strain HM-214; antibiotic + D-11 (MICb/MICbc 128/4)
# Method in brief: as §1
# [10] = system: P. aeruginosa NR-31040; assay: microbe, parasite or virus in culture; design: MICa: MIC of the antibiotic / MICac: MIC of the antibiotic in the combination: unit not given beside the values; conditions: strain NR-31040; for FICI: antibiotic + D-11 (MICb/MICbc 128/4); for MICa: MIC of the antibiotic: antibiotic alone; for MICa: MIC of the antibiotic / MICac: MIC of the antibiotic in the combination: unit not given; for MICac: MIC of the antibiotic in the combination: with D-11 at MICbc 4
# Method in brief: as §1
# [11] = system: P. aeruginosa ATCC27853; assay: microbe, parasite or virus in culture; design: MICa: MIC of the antibiotic / MICac: MIC of the antibiotic in the combination: unit not given beside the values; conditions: for FICI: antibiotic + D-11 (MICb/MICbc 32/4); for MICac: MIC of the antibiotic in the combination: with D-11 at MICbc 4
# Method in brief: as §1
# [12] = system: P. aeruginosa PA14; assay: microbe, parasite or virus in culture; design: MICa: MIC of the antibiotic / MICac: MIC of the antibiotic in the combination: unit not given beside the values; conditions: for FICI: antibiotic + D-11 (MICb/MICbc 128/4); for MICac: MIC of the antibiotic in the combination: with D-11 at MICbc 4
# Method in brief: as §1
# [13] = system: P. aeruginosa NR-31041; assay: microbe, parasite or virus in culture; design: MICa: MIC of the antibiotic / MICac: MIC of the antibiotic in the combination: unit not given beside the values; conditions: for FICI: antibiotic + D-11 (MICb/MICbc 64/4); for MICac: MIC of the antibiotic in the combination: with D-11 at MICbc 4
# Method in brief: as §1
# [14] = system: P. aeruginosa PAK; assay: microbe, parasite or virus in culture; design: MICa: MIC of the antibiotic / MICac: MIC of the antibiotic in the combination: unit not given beside the values; conditions: for FICI: antibiotic + D-11 (MICb/MICbc 64/4); for MICac: MIC of the antibiotic in the combination: with D-11 at MICbc 4
# Method in brief: as §1
# [15] = strain AUMC-Pa-5, unit not given
# [16] = strain AUMC-Pa-3, unit not given
# [17] = strain AUMC-Pa-4, unit not given
# [18] = strain ATCC27853, unit not given
# [19] = strain NR-31041, unit not given
smiles,measurement,setting,value
CC[C@H]1OC(=O)[C@H](C)[C@@H](O[C@H]2C[C@@](C)(OC)[C@@H](O)[C@H](C)O2)[C@H](C)[C@@H](O[C@@H]2O[C@H](C)C[C@H](N(C)C)[C@H]2O)[C@](C)(OC)C[C@@H](C)C(=O)[C@H](C)[C@@H](O)[C@]1(C)O [Clarithromycin],MIC,"[1]; Pseudomonas aeruginosa, AUMCPA5, 18 h, read-out: MICa: MIC of the antibiotic",> 128 µM
same,FICI,[1]; strain AUMC-Pa-5,0.188
same,MICac: MIC of the antibiotic in the combination,[1]; [15],32
same,MICa: the MIC of antibiotics,"[2]; S1 Table, macrolide alone, PAO1",128 µM
same,FICI,[3]; strain AUMC-Pa-3,0.094
same,MICa: MIC of the antibiotic,"[3]; strain AUMC-Pa-3, antibiotic alone, unit not given",128
same,MICac: MIC of the antibiotic in the combination,[3]; [16],8
same,FICI,[4]; strain AUMC-Pa-4,0.281
same,MICa: MIC of the antibiotic,"[4]; strain AUMC-Pa-4, antibiotic alone, unit not given",128
same,MICac: MIC of the antibiotic in the combination,[4]; [17],32
same,FICI,[5],0.313
same,MICa: MIC of the antibiotic,[5],128
same,MICac: MIC of the antibiotic in the combination,[5],32
same,FICI,[6],0.156
same,FICI,[7],0.313
same,MIC,"[8]; read-out: Antibiotic sensibility (MIC) of clinical P. aeruginosa isolate AUMC-Pa-1, strain AUMC-Pa-1, antibiotic alone",128 µM
same,MIC,"[8]; read-out: Antibiotic sensibility (MIC) of clinical P. aeruginosa isolate AUMC-Pa-2, strain AUMC-Pa-2, antibiotic alone",128 µM
same,MIC,"[8]; read-out: Antibiotic sensibility (MIC) of clinical P. aeruginosa isolate AUMC-Pa-3, strain AUMC-Pa-3, antibiotic alone",128 µM
same,MIC,"[8]; read-out: Antibiotic sensibility (MIC) of clinical P. aeruginosa isolate AUMC-Pa-4, strain AUMC-Pa-4, antibiotic alone",128 µM
same,MIC,"[8]; read-out: Antibiotic sensibility (MIC) of clinical P. aeruginosa isolate AUMC-Pa-5, strain AUMC-Pa-5, antibiotic alone",> 128 µM
same,MIC,"[8]; read-out: Antibiotic sensibility (MIC) of clinical P. aeruginosa isolate AUMC-Pa-6, strain AUMC-Pa-6, antibiotic alone",128 µM
same,MIC,"[8]; read-out: Antibiotic sensibility (MIC) of clinical P. aeruginosa isolate HM-214, strain HM-214, antibiotic alone",128 µM
same,MIC,"[8]; read-out: Antibiotic sensibility (MIC) of clinical P. aeruginosa isolate NR-31040, strain NR-31040, antibiotic alone",128 µM
same,MIC,"[8]; read-out: Antibiotic sensibility (MIC) of clinical P. aeruginosa isolate NR-31041, strain NR-31041, antibiotic alone",128 µM
same,FICI,[9],0.281
same,FICI,[10],0.281
same,MICa: MIC of the antibiotic,[10],128
same,MICac: MIC of the antibiotic in the combination,[10],32
same,FICI,[11]; strain ATCC27853,0.188
same,MICa: MIC of the antibiotic,"[11]; strain ATCC27853, antibiotic alone, unit not given",128
same,MICac: MIC of the antibiotic in the combination,[11]; [18],8
same,FICI,[12]; strain PA14,0.281
same,MICa: MIC of the antibiotic,"[12]; strain PA14, antibiotic alone, unit not given",128
same,MICac: MIC of the antibiotic in the combination,"[12]; strain PA14, unit not given",32
same,FICI,[13]; strain NR-31041,0.188
same,MICa: MIC of the antibiotic,"[13]; strain NR-31041, antibiotic alone, unit not given",128
same,MICac: MIC of the antibiotic in the combination,[13]; [19],16
same,FICI,[14]; strain PAK,0.188
same,MICa: MIC of the antibiotic,"[14]; strain PAK, antibiotic alone, unit not given",128
same,MICac: MIC of the antibiotic in the combination,"[14]; strain PAK, unit not given",16
CO[C@H]1[C@H](OC(=O)c2ccc(C)[nH]2)[C@H](O)[C@@H](Oc2ccc3c(O)c(NC(=O)c4c[nH]c(C(=O)Nc5c(O)c6ccc(O[C@H]7OC(C)(C)[C@@H](OC)[C@H](OC(=O)c8ccc(C)[nH]8)[C@@H]7O)c(C)c6oc5=O)c4C)c(=O)oc3c2C)OC1(C)C [Coumermycin A1],FICI,[1]; strain AUMC-Pa-5,0.313
same,MICa: MIC of the antibiotic,"[1]; strain AUMC-Pa-5, antibiotic alone, unit not given",8
same,MICac: MIC of the antibiotic in the combination,[1]; [15],2
same,reduction of the MICs,"[2]; PAO1, in the presence of 4 μM of D-11",512 fold
same,MIC,"[2]; Pseudomonas aeruginosa, PAO1, 18 h, read-out: MICa: the MIC of antibiotics",8 µM
same,FICI,"[2]; S3 Table, PAO1, antibiotic + 2 μM D-11",0.078
same,MICac: the MIC for the antibiotic in the combination,"[2]; S3 Table, PAO1, with 2 μM D-11",0.125 µM
same,MICac: the MIC for the antibiotic in the combination,"[2]; S3 Table, PAO1, with 4 μM D-11",0.01562 µM
same,MICa: the MIC of antibiotics,"[2]; S3 Table, antibiotic alone, PAO1",8 µM
same,MIC,"[3]; Pseudomonas aeruginosa, AUMCPA3, 18 h, read-out: MICa: MIC of the antibiotic",8 µM
same,FICI,[3]; strain AUMC-Pa-3,0.035
same,MICac: MIC of the antibiotic in the combination,[3]; [16],0.031
same,MIC,"[4]; Pseudomonas aeruginosa, AUMCPA4, 18 h, read-out: MICa: MIC of the antibiotic",8 µM
same,FICI,[4]; strain AUMC-Pa-4,0.094
same,MICac: MIC of the antibiotic in the combination,[4]; [17],0.5
same,FICI,[5],0.313
same,MICa: MIC of the antibiotic,[5],8
same,MICac: MIC of the antibiotic in the combination,[5],2
same,FICI,[6],0.039
same,FICI,[7],0.094
same,MIC,[8]; read-out: Antibiotic sensibility (MIC) of clinical P. aeruginosa isolate AUMC-Pa-1,8 µM
same,MIC,[8]; read-out: Antibiotic sensibility (MIC) of clinical P. aeruginosa isolate AUMC-Pa-2,8 µM
same,MIC,[8]; read-out: Antibiotic sensibility (MIC) of clinical P. aeruginosa isolate AUMC-Pa-3,8 µM
same,MIC,[8]; read-out: Antibiotic sensibility (MIC) of clinical P. aeruginosa isolate AUMC-Pa-4,8 µM
same,MIC,[8]; read-out: Antibiotic sensibility (MIC) of clinical P. aeruginosa isolate AUMC-Pa-5,8 µM
same,MIC,[8]; read-out: Antibiotic sensibility (MIC) of clinical P. aeruginosa isolate AUMC-Pa-6,8 µM
same,MIC,[8]; read-out: Antibiotic sensibility (MIC) of clinical P. aeruginosa isolate HM-214,8 µM
same,MIC,[8]; read-out: Antibiotic sensibility (MIC) of clinical P. aeruginosa isolate NR-31040,8 µM
same,MIC,[8]; read-out: Antibiotic sensibility (MIC) of clinical P. aeruginosa isolate NR-31041,8 µM
same,FICI,[9],0.281
same,FICI,[10],0.281
same,MICa: MIC of the antibiotic,[10],8
same,MICac: MIC of the antibiotic in the combination,[10],2
same,MIC,"[11]; Pseudomonas aeruginosa, ATCC27853, 18 h, read-out: MICa: MIC of the antibiotic",8 µM
same,FICI,[11]; strain ATCC27853,0.156
same,MICac: MIC of the antibiotic in the combination,[11]; [18],0.5
same,MIC,"[12]; Pseudomonas aeruginosa, PA14, 18 h, read-out: MICa: MIC of the antibiotic",8 µM
same,FICI,[12]; strain PA14,0.094
same,MICac: MIC of the antibiotic in the combination,"[12]; strain PA14, unit not given",0.5
same,MIC,"[13]; Pseudomonas aeruginosa, NR31041, 18 h, read-out: MICa: MIC of the antibiotic",8 µM
same,FICI,[13]; strain NR-31041,0.078
same,MICac: MIC of the antibiotic in the combination,[13]; [19],0.125
same,MIC,"[14]; Pseudomonas aeruginosa, 18 h, read-out: MICa: MIC of the antibiotic",8 µM
same,FICI,[14]; strain PAK,0.125
same,MICac: MIC of the antibiotic in the combination,"[14]; strain PAK, unit not given",0.5
